Residue numbers refer to the chain shown, from its start.
Key:
FLT3 non-autoinhibited = molecular target: T1, FLT3 non-autoinhibited (Homo sapiens, UniProt P36888); assay: KINOMEscan KdElect competitive binding assay, non-autoinhibited FLT3; details: tosylate salt
T1 construct: host or cells: E. coli BL21-derived host (T7 phage) or HEK-293
T1 sequence (P36888 610-943 limits assumed): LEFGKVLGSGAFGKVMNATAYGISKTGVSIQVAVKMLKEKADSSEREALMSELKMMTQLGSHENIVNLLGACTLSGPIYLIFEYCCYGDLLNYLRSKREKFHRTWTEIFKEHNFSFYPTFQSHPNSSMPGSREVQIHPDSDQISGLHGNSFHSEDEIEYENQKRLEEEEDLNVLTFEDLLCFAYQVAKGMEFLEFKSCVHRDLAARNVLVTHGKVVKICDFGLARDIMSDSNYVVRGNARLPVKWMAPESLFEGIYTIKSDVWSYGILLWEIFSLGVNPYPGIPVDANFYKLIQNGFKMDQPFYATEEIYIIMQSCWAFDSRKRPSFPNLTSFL
Source text: (§1) Competitive binding assay.
(§2) The lysates were then centrifuged and filtered.

FLT3 D835Y = molecular target: T2, FLT3 D835Y (Homo sapiens, UniProt P36888, D835Y); assay: KINOMEscan KdElect competitive binding assay, FLT3 D835Y; details: tosylate salt
T2 construct: host or cells: E. coli BL21-derived host (T7 phage) or HEK-293
T2 sequence (P36888 610-943 D835Y limits assumed): T1 sequence (P36888 610-943 limits assumed) with D226Y
Source text: as §1, §2

FLT3 (ITD, D835V) = molecular target: T3, FLT3 (ITD, D835V) (Homo sapiens, UniProt P36888, D835V, form not given); assay: KINOMEscan KdElect competitive binding assay, dual mutant FLT3 (ITD, D835V); details: tosylate salt; read-out: Kd, FLT3 (ITD, D835V) double mutant
T3 construct: fused on or other part: DNA tag / T7 phage display tag for qPCR detection
T3 sequence (P36888 1-993 D835V): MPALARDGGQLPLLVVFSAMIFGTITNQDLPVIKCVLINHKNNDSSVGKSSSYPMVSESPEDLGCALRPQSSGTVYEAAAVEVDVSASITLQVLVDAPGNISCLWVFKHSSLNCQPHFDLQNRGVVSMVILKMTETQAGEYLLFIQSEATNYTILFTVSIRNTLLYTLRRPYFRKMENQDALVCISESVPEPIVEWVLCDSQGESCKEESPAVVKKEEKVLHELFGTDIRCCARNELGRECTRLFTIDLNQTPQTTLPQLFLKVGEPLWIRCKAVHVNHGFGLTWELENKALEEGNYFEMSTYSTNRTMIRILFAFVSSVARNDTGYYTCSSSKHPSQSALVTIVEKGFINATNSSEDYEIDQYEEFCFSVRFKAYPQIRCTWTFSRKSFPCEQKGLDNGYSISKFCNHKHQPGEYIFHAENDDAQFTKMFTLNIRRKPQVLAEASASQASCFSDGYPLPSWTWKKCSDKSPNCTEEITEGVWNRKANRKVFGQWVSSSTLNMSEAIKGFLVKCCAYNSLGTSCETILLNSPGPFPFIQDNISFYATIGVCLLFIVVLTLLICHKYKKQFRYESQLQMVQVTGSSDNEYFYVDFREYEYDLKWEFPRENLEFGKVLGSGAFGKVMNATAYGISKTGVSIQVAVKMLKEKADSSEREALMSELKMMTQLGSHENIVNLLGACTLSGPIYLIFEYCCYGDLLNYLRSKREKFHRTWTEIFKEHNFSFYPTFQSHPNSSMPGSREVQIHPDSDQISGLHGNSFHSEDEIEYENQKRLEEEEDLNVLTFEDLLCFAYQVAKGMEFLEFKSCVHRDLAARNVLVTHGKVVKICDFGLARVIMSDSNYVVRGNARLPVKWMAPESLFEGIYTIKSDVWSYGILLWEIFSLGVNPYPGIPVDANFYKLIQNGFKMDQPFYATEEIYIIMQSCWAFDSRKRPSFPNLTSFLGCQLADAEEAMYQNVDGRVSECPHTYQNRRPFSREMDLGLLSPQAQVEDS
Source text: as §1, §2

affinity shift between the non-autoinhibited and autoinhibited states of FLT3 (FLT3 non-autoinhibited): approximately 50 fold
Kd (FLT3 non-autoinhibited; average Kd, read-out: Binding Constant (Kd), FLT3 non-autoinhibited): 0.35 nM
Kd (FLT3 D835Y): 0.1 nM
Kd (FLT3 (ITD, D835V)): 0.015 nM
Compound: COCCOc1ccc2c(c1)ncn2-c1ccc2cccc(N3CCC(N)CC3)c2n1 [CP-673,451]
